27 compounds from patent US20230017532A1 (Hoffmann-La Roche Inc., priority 2018, published 2023) can be followed below.

Structures can show the parent of a compound that is named as a salt. Where two headings read alike, the source gives them in different places.

The subject of the experiment is Acinetobacter baumannii ATCC17978. Put plainly: Antimicrobial susceptibility testing: 90% growth inhibitory concentration (IC90) determination, Iso-Sensitest broth, OD 600 nm. It counts as cell-based. The conditions noted are these: read-out: ATCC 17978 IC90. As for the experimental part:
Antimicrobial Susceptibility Testing:
90% Growth Inhibitory Concentration (IC90) Determination
The in vitro antimicrobial activity of the compounds was determined according to the following procedure:
The assay used a 10-points Iso-Sensitest broth medium to measure quantitatively the in vitro activity of the compounds against Acinetobacter baumannii ATCC17978 and Acinetobacter baumannii ATCC17961.
Stock compounds in DMSO were serially twofold diluted (e.g. range from 50 to 0.097 μM final concentration) in 384 wells microtiter plates and inoculated with 49 μl the bacterial suspension in Iso-Sensitest medium to have a final cell concentration of ˜5×10^(5) CFU/ml in a final volume/well of 50 ul/well. Microtiter plates were incubated at 35±2° C.
Bacterial cell growth was determined with the measurement of optical density at λ=600 nm each 20 minutes over a time course of 16 h. Growth inhibition was calculated during the logarithmic growth of the bacterial cells with determination of the concentration inhibiting 50% (IC50) and 90% (IC90) of the growth.
Table 1 provides the 90% growth inhibitory concentrations (IC90) in micromoles per liter of the compounds of present invention obtained against the strain Acinetobacter baumannii ATCC17978 and Acinetobacter baumannii ATCC17961.

Setting [1] is: Acinetobacter baumannii, ATCC17978, 16 h, 90% growth inhibitory concentration, Acinetobacter baumannii ATCC17978, Iso-Sensitest broth, OD 600 nm over 16 h.
[2] abbreviates: Acinetobacter baumannii, ATCC17978, 16 h.

For the compound `CCc1cc(Nc2nccn3c(-c4ccc(OCC#N)c(F)c4Cl)cnc23)ccc1C(=O)NCCOCCN(C)C` [Example 22, 4-[[3-[2-chloro-4-(cyanomethoxy)-3-fluoro-phenyl]imidazo[1,2-a]pyrazin-8-yl]amino]-N-[2-[2-(dimethylamino)ethoxy]ethyl]-2-ethyl-benzamide], the IC90 (as a rule, the concentration needed for an effect of 90%) under setting [1] is 0.067 µM.

In the case of `COc1ccc(-c2cnc3c(Nc4ccc(C(=O)NCCN(C)CCN)c(C)c4)nccn23)cc1F` [Example 23, N-(2-((2-aminoethyl)(methyl)amino)ethyl)-4-((3-(3-fluoro-4-methoxyphenyl)imidazo[1,2-a]pyrazin-8-yl)amino)-2-methylbenzamide], the IC90 under setting [1] turned out to be 0.2 µM.

Turning to `COc1ccc(-c2cnc3c(Nc4ccc(C(=O)N(C)CCOCCN)c(C)c4)nccn23)cc1` [Example 24, N-(2-(2-aminoethoxy)ethyl)-4-((3-(4-methoxyphenyl)imidazo[1,2-a]pyrazin-8-yl)amino)-N,2-dimethylbenzamide hydrochloride], the IC90 under setting [2] stood at 0.43 µM.

`COc1ccc(-c2cnc3c(Nc4ccc(C(=O)NCCSCCN)c(C)c4)nccn23)cc1F` [Example 25, N-(2-((2-aminoethyl)thio)ethyl)-4-((3-(3-fluoro-4-methoxyphenyl)imidazo[1,2-a]pyrazin-8-yl)amino)-2-methylbenzamide]: the IC90 under setting [1] was 0.15 µM.

As for `CCN(C(=O)NCCCN(C)C)C(=O)c1ccc(Nc2nccn3c(-c4ccc(OCC#N)c(F)c4F)cnc23)cc1Cl` [Example 27, 2-chloro-4-[[3-[4-(cyanomethoxy)-2,3-difluoro-phenyl]imidazo[1,2-a]pyrazin-8-yl]amino]-N-[3-(dimethylamino)propylcarbamoyl]-N-ethyl-benzamide], the 90% effect concentration (IC90) under setting [1] came out at 0.56 µM.

Turning to `C#CCOc1ccc(-c2cnc3c(Nc4ccc(C(=O)NCCOCCN)c(C)c4)nccn23)cc1` [Example 28, N-[2-(2-Aminoethoxy)ethyl]-2-methyl-4-[[3-(4-prop-2-ynoxyphenyl)imidazo[1,2-a]pyrazin-8-yl]amino]benzamide; formic acid], the IC90 under setting [1] was 0.12 µM.

Consider `Cc1cc(Nc2nccn3c(-c4ccc(OCC#CCO)cc4)cnc23)ccc1C(=O)NCCOCCN` [Example 29, N-[2-(2-aminoethoxy)ethyl]-4-[[3-[4-(4-hydroxybut-2-ynoxy)phenyl]imidazo[1,2-a]pyrazin-8-yl]amino]-2-methyl-benzamide formate], for which, under setting [1], the IC90 turned out to be 0.12 µM.

Turning to `COc1ccc(-c2cnc3c(Nc4ccc(C(=O)NCCOCCN)c(C)c4)nccn23)cc1Cl` [Example 30, N-(2-(2-aminoethoxy)ethyl)-4-((3-(3-chloro-4-methoxyphenyl)imidazo[1,2-a]pyrazin-8-yl)amino)-2-methylbenzamide hydrochloride], under setting [2], the IC90 was 0.14 µM.

Consider `Cc1cc(Nc2nccn3c(-c4ccc(F)cc4)cnc23)ccc1C(=O)NCCOCCN` [Example 31, N-(2-(2-aminoethoxy)ethyl)-4-((3-(4-fluorophenyl)imidazo[1,2-a]pyrazin-8-yl)amino)-2-methylbenzamide hydrochloride], for which the IC90 under setting [2] was determined as 0.95 µM.

In the case of `Cc1cc(Nc2nccn3c(-c4ccc(Cl)c(F)c4)cnc23)ccc1C(=O)NCCOCCN` [Example 32, N-(2-(2-aminoethoxy)ethyl)-4-((3-(4-chloro-3-fluorophenyl)imidazo[1,2-a]pyrazin-8-yl)amino)-2-methylbenzamide hydrochloride], the IC90 under setting [2] turned out to be 0.3 µM.

For `Cc1cc(Nc2nccn3c(-c4ccc(F)c(F)c4)cnc23)ccc1C(=O)NCCOCCN` [Example 33, N-(2-(2-aminoethoxy)ethyl)-4-((3-(3,4-difluorophenyl)imidazo[1,2-a]pyrazin-8-yl)amino)-2-methylbenzamide hydrochloride], the IC90 under setting [2] came out at 0.52 µM.

For `COc1ccc(-c2cnc3c(Nc4ccc(C(=O)NCCOCCN)c(C)c4)nccn23)c(F)c1` [Example 34, N-(2-(2-aminoethoxy)ethyl)-4-((3-(2-fluoro-4-methoxyphenyl)imidazo[1,2-a]pyrazin-8-yl)amino)-2-methylbenzamide hydrochloride], the IC90 under setting [2] was found to be 0.59 µM.

`Cc1cc(Nc2nccn3c(-c4ccc(F)cc4F)cnc23)ccc1C(=O)NCCOCCN` [Example 35, N-(2-(2-aminoethoxy)ethyl)-4-((3-(2,4-difluorophenyl)imidazo[1,2-a]pyrazin-8-yl)amino)-2-methylbenzamide hydrochloride]: the IC90 under setting [2] was determined as 0.77 µM.

Consider `COc1ccc(-c2cnc3c(Nc4ccc(C(=O)NCCOCCN)c(C)c4)nccn23)cc1F` [Example 36, N-(2-(2-aminoethoxy)ethyl)-4-((3-(3-fluoro-4-methoxyphenyl)imidazo[1,2-a]pyrazin-8-yl)amino)-2-methylbenzamide hydrochloride], for which, under setting [2], the IC90 is 0.16 µM.

On to `Cc1cc(Nc2nccn3c(-c4ccc(F)c(F)c4F)cnc23)ccc1C(=O)NCCOCCN` [Example 37, N-(2-(2-aminoethoxy)ethyl)-2-methyl-4-((3-(2,3,4-trifluorophenyl)imidazo[1,2-a]pyrazin-8-yl)amino)benzamide hydrochloride], for which, under setting [2], the IC90 is 0.37 µM.

With `COc1ccc(-c2cnc3c(Nc4ccc(C(=O)NCCOCCN5CCC(O)CC5)c(C)c4)nccn23)cc1` [Example 38, N-(2-(2-(4-hydroxypiperidin-1-yl)ethoxy)ethyl)-4-((3-(4-methoxyphenyl)imidazo[1,2-a]pyrazin-8-yl)amino)-2-methylbenzamide], the IC90 under setting [1] is 0.15 µM.

Consider `CNCCOCCNC(=O)c1ccc(Nc2nccn3c(-c4ccc(OC)cc4)cnc23)cc1C` [Example 39, 4-((3-(4-methoxyphenyl)imidazo[1,2-a]pyrazin-8-yl)amino)-2-methyl-N-(2-(2-(methylamino)ethoxy)ethyl)benzamide], for which the concentration for an effect of 90% (IC90) under setting [1] was 0.26 µM.

On to `COc1ccc(-c2cnc3c(Nc4ccc(C(=O)NCCOCCNCCO)c(C)c4)nccn23)cc1` [Example 40, N-(2-(2-((2-hydroxyethyl)amino)ethoxy)ethyl)-4-((3-(4-methoxyphenyl)imidazo[1,2-a]pyrazin-8-yl)amino)-2-methylbenzamide], for which, under setting [1], the IC90 was found to be 0.21 µM.

In the case of `COc1ccc(-c2cnc3c(Nc4ccc(C(=O)NCCOCCNCC(F)F)c(C)c4)nccn23)cc1` [Example 41, N-(2-(2-((2,2-difluoroethyl)amino)ethoxy)ethyl)-4-((3-(4-methoxyphenyl)imidazo[1,2-a]pyrazin-8-yl)amino)-2-methylbenzamide], under setting [1], the IC90 was 0.45 µM.

Turning to `COc1ccc(-c2cnc3c(Nc4ccc(C(=O)NCCOCCN5CC6(COC6)C5)c(C)c4)nccn23)cc1` [Example 42, N-(2-(2-(2-oxa-6-azaspiro[3.3]heptan-6-yl)ethoxy)ethyl)-4-((3-(4-methoxyphenyl)imidazo[1,2-a]pyrazin-8-yl)amino)-2-methylbenzamide], the IC90 under setting [1] worked out at 0.25 µM.

With `COc1ccc(-c2cnc3c(Nc4ccc(C(=O)NCCOCCN5CCC(F)CC5)c(C)c4)nccn23)cc1` [Example 43, N-(2-(2-(4-fluoropiperidin-1-yl)ethoxy)ethyl)-4-((3-(4-methoxyphenyl)imidazo[1,2-a]pyrazin-8-yl)amino)-2-methylbenzamide], under setting [1], the 90% effect concentration (IC90) came out at 0.29 µM.

Take `COc1ccc(-c2cnc3c(Nc4ccc(C(=O)NCCOCCN5CCNCC5)c(C)c4)nccn23)cc1` [Example 44, 4-[[3-(4-methoxyphenyl)imidazo[1,2-a]pyrazin-8-yl]amino]-2-methyl-N-[2-(2-piperazin-1-ylethoxy)ethyl]benzamide;dihydrochloride]: the IC90 (90% growth inhibitory concentration, Acinetobacter baumannii ATCC17978, Iso-Sensitest broth, OD 600 nm over 16 h) amounted to 0.46 µM.

In the case of `CNCCOCCNC(=O)c1ccc(Nc2nccn3c(-c4ccc(OC(F)F)cc4)cnc23)cc1C` [Example 45, 4-((3-(4-(difluoromethoxy)phenyl)imidazo[1,2-a]pyrazin-8-yl)amino)-2-methyl-N-(2-(2-(methylamino)ethoxy)ethyl)benzamide], under setting [1], the IC90 amounted to 0.29 µM.

As for `Cc1cc(Nc2nccn3c(-c4ccc(OC(F)F)cc4)cnc23)ccc1C(=O)NCCS(=O)(=O)CCN` [Example 46, N-(2-((2-Aminoethyl)sulfonyl)ethyl)-4-((3-(4-(difluoromethoxy)phenyl)imidazo[1,2-a]pyrazin-8-yl)amino)-2-methylbenzamide], under setting [1], the IC90 came out at 0.53 µM.

Consider `Cc1cc(Nc2nccn3c(-c4ccc(OC(F)F)cc4)cnc23)ccc1C(=O)NCC[S+]([O-])CCN` (stereo not drawn) [Example 47, N-(2-((2-Aminoethyl)sulfinyl)ethyl)-4-((3-(4-(difluoromethoxy)phenyl)imidazo[1,2-a]pyrazin-8-yl)amino)-2-methylbenzamide], for which, under setting [1], the IC90 came out at 0.92 µM.

For the compound `CCc1cc(Nc2nccn3c(-c4ccc(OC)c(F)c4F)cnc23)ccc1C(=O)NCCNCC(=O)O` [Example 48, (2-(4-((3-(2,3-difluoro-4-methoxyphenyl)imidazo[1,2-a]pyrazin-8-yl)amino)-2-ethylbenzamido)ethyl)glycine compound with 2,2,2-trifluoroacetic acid], under setting [1], the IC90 came to 0.92 µM.

Regarding `CCc1cc(Nc2nccn3c(-c4ccc(OC)c(F)c4F)cnc23)ccc1C(=O)NCCCNCC(=O)O` [Example 49, (3-(4-((3-(2,3-difluoro-4-methoxyphenyl)imidazo[1,2-a]pyrazin-8-yl)amino)-2-ethylbenzamido)propyl)glycine compound trifluoroacetate], under setting [1], the IC90 is 0.38 µM.
